# From US12691070B2, “Cationic lipids and preparation method thereof” (RiboX Therapeutics HK Limited, priority 2023, dated 2026)
# Assays:
# [1] = test system: BALB/C mice; experiment: In vivo expression, whole-body luminescence (IVIS); conditions: cirRNA (SEQ ID NO: 1) LNPs, BALB/C mice
# Experimental: 6-8 week old, female BALB/C mice were injected with 0.05 mg*kg-1 of RNA-LNPs encoding for firefly-luciferase by intravenous injection. At 6 hours post injection, animals were intraperitoneally injected with 15 mg/ml of Luciferin substrate and whole-body luminescence was determined by a bioluminescent in vivo imaging system (IVIS).
# [2] = test system: RAW 264.7 cells; experiment: In vitro expression of firefly-luciferase, RAW 264.7; type: cell-based; conditions: cirRNA (SEQ ID NO: 1) LNPs; firefly-luciferase luminescence; RAW 264.7 cells
# Summary of the method: (§1)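 Transfection used 100 ng/mL luciferase-encoding RNA-LNPs; activity in lysates was determined at 72 h.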
# [3] = LNP size and polydispersity index (PDI) by dynamic light scattering; type: physicochemical; conditions: LNP with cirRNA (SEQ ID NO: 1); for Size: in nm (unit assumed)
# Summary of the method: (§2)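 Dynamic light scattering and zeta potential measurements were run on PBS-dialyzed LNPs, which had been formed by microfluidic mixing at 12 ml/min with final lipid at 1.5 mM to 6 mM. RNA content and percent encapsulation were determined by Ribogreen with and without Triton X-100.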
# [4] = LNP zeta potential (Zetasizer); type: physicochemical; conditions: LNP with cirRNA (SEQ ID NO: 1)
# Summary of the method: as §2
# [5] = test system: RAW 264.7 cells; experiment: In vitro toxicity (CellTiter-Glo cell viability), RAW 264.7; type: cell-based; conditions: cirRNA (SEQ ID NO: 1) LNPs; RAW 264.7 cells;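 note: percent of untreated cells luminescence signal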
# Summary of the method: (§3)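 Toxicity of RNA-LNPs (1 μg/mL) is reported as cell viability, calculated from CellTiter-Glo luminescence measured at 72 hours after transfection.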
# [6] = test system: Hep G2 cells; experiment: In vitro toxicity (CellTiter-Glo cell viability), Hep G2; type: cell-based; conditions: cirRNA (SEQ ID NO: 1) LNPs; Hep G2 cells;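 note: percent of untreated cells luminescence signal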
# Summary of the method: as §3
# [7] = RNA encapsulation efficacy by Quant-IT Ribogreen kit; type: physicochemical; conditions: LNP with cirRNA (SEQ ID NO: 1)
# Summary of the method: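 Encapsulation efficacy came from Ribogreen fluorescence of LNPs compared with Triton X-100-lysed LNPs. The particles carried luciferase-encoding circular or linear RNA at an ionizable lipid:ribonucleotide ratio of 15 or 6.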
# [8] = test system: Hep G2 cells; experiment: In vitro expression of firefly-luciferase, Hep G2; type: cell-based; conditions: cirRNA (SEQ ID NO: 1) LNPs; firefly-luciferase luminescence; Hep G2 cells
# Summary of the method: as §1
PDI [3],Size [3],Zeta (mV) [4],Encapsulation Efficiency % [7],SMILES,In vivo Expression (Whole Body) [1],In vitro Expression RAW [2],In vitro Viability RAW [5],In vitro Viability HepG2 [6],In vitro Expression HepG2 [8]
0.277,65.71,8.983 mV,92%,CCCCC/C=C\CCOC(=O)CCCCCN(CCCCCCCCOC(=O)C(CCCCCC)CCCCCCCC)CCOC(=O)NCCN1CCN(C)CC1 (stereo not drawn) [Lipid 187],2.29E+06,7.47E+04,0%,93%,3.27E+05
0.07877,73.74,−9.419 mV,88%,CCCCC/C=C\CCOC(=O)CCCCCN(CCCCCCCCOC(=O)C(CCCCCC)CCCCCCCC)CCOC(=O)NCCN1CCOCC1 (stereo not drawn) [Lipid 188],2.17E+07,2.82E+03,87%,96%,1.12E+04
0.4058,84.04,18.88 mV,95%,CCCCC/C=C\CCOC(=O)CCCCCN(CCCCCCCCOC(=O)C(CCCCCC)CCCCCCCC)CCOC(=O)NCCN(C)C (stereo not drawn) [Lipid 189],1.79E+06,2.71E+02,1%,89%,9.85E+04
0.2327,79.79,12.32 mV,91%,CCCCC/C=C\CCOC(=O)CCCCCN(CCCCCCCCOC(=O)C(CCCCCC)CCCCCCCC)CCOC(=O)NCCN1CCCC1 (stereo not drawn) [Lipid 191],1.02E+07,1.22E+03,4%,92%,4.43E+04
0.1344,76.52,−7.77 mV,92%,CCCCC/C=C\CCOC(=O)CCCCCN(CCCCCCCCOC(=O)C(CCCCCC)CCCCCCCC)CCOC(=O)NCCN1CCCCC1 (stereo not drawn) [Lipid 192],8.52E+07,8.42E+03,86%,94%,4.18E+04
0.3634,66.71,15.29 mV,94%,CCCCCCCCCC(=O)OCCCCCCCN(CCCCCCCCOC(=O)C(CCCCCC)CCCCCCCC)CCOC(=O)NCCCN(C)C (stereo not drawn) [Lipid 193],1.00E+06,1.70E+03,3%,94%,5.28E+05
0.2199,64.1,−3.471 mV,94%,CCCCCCCCCC(=O)OCCCCCCCN(CCCCCCCCOC(=O)C(CCCCCC)CCCCCCCC)CCOC(=O)NCc1ncc[nH]1 (stereo not drawn) [Lipid 198],9.90E+06,8.39E+04,90%,104%,2.19E+04
0.436,97.91,13.62 mV,94%,CCCCCCCCCC(=O)OCCCCCCCN(CCCCCCCCOC(=O)C(CCCCCC)CCCCCCCC)CCOC(=O)NCCCN(CC)CC (stereo not drawn) [Lipid 199],3.44E+05,1.29E+03,0%,87%,3.74E+05
0.2967,82.06,7.27 mV,95%,CCCCCCCCCC(=O)OCCCCCCCN(CCCCCCCCOC(=O)C(CCCCCC)CCCCCCCC)CCOC(=O)NCCN1CCN(C)CC1 (stereo not drawn) [Lipid 200],6.79E+05,4.45E+04,0%,103%,4.46E+05
0.1932,60.75,16.36 mV,93%,CCCCCCCCCC(=O)OCCCCCCCCN(CCCCCCCCOC(=O)CCCCCCCCC)CCOC(=O)NCCN(C)C [Lipid 202],2.33E+05,3.35E+02,92%,94%,2.49E+05
0.08783,98.65,−0.09389 mV,73%,CCCCCCCCCC(=O)OCCCCCCCCN(CCCCCCCCOC(=O)CCCCCCCCC)CCOC(=O)NCc1ncc[nH]1 [Lipid 203],6.84E+06,7.82E+04,91%,103%,1.12E+04
0.1521,61.16,18.81 mV,94%,CCCCCCCCCC(=O)OCCCCCCCCN(CCCCCCCCOC(=O)CCCCCCCCC)CCOC(=O)NCCN1CCN(C)CC1 [Lipid 205],6.61E+05,7.09E+03,95%,94%,5.81E+05
0.1886,86.68,13.53 mV,93%,CCCCCCCCCC(=O)OCCCCCCCCN(CCCCCCCCOC(=O)CCCCCCCCC)CCOC(=O)NCCN1CCCC1 [Lipid 209],6.62E+05,1.08E+02,95%,96%,3.81E+04
0.2243,97.77,7.113 mV,94%,CCCCCCCC/C=C\CCCCCCCCN(CCCCCCCCOC(=O)C(CCCCCC)CCCCCCCC)CCOC(=O)NCCN(C)C (stereo not drawn) [Lipid 211],1.09E+07,2.36E+05,91%,90%,1.14E+07
0.1853,65.77,−3.175 mV,93%,CCCCCCCC/C=C\CCCCCCCCN(CCCCCCCCOC(=O)C(CCCCCC)CCCCCCCC)CCOC(=O)NCc1ncc[nH]1 (stereo not drawn) [Lipid 212],4.68E+06,1.44E+05,82%,99%,6.37E+04
0.2952,114.2,13.22 mV,94%,CCCCCCCC/C=C\CCCCCCCCN(CCCCCCCCOC(=O)C(CCCCCC)CCCCCCCC)CCOC(=O)NCCCN(CC)CC (stereo not drawn) [Lipid 213],2.11E+06,2.06E+04,90%,74%,6.40E+06
0.304,76.43,5.906 mV,96%,CCCCCCCC/C=C\CCCCCCCCN(CCCCCCCCOC(=O)C(CCCCCC)CCCCCCCC)CCOC(=O)NCCN1CCN(C)CC1 (stereo not drawn) [Lipid 214],1.18E+06,1.20E+05,87%,83%,3.88E+06
0.05226,62.22,−3.755 mV,96%,CCCCCCCC/C=C\CCCCCCCCN(CCCCCCCCOC(=O)C(CCCCCC)CCCCCCCC)CCOC(=O)NCCN1CCOCC1 (stereo not drawn) [Lipid 215],1.61E+07,7.31E+03,86%,85%,5.62E+04
0.4093,75.92,11.61 mV,96%,CCCCCCCC/C=C\CCCCCCCCN(CCCCCCCCOC(=O)C(CCCCCC)CCCCCCCC)CCOC(=O)NCCCN(C)C (stereo not drawn) [Lipid 216],1.34E+06,3.31E+05,75%,76%,1.59E+07
